In ChEMBL document CHEMBL1770110, “Pyrimido[4,5-d]azepines as potent and selective 5-HT2C receptor agonists: design, synthesis, and evaluation of PF-3246799 as a treatment for urinary incontinence” (Bioorg Med Chem Lett, 2011):
pEC50: −log10 of the molar value. Active and inactive are the calls of the source. The calls are words filed in the database; no cut-off is given here.

How the values were obtained:
[1] = target: T1, 5-hydroxytryptamine receptor 2C (Homo sapiens) (UniProt P28335); assay: Agonist activity at human 5HT2C receptor expressed in CHO-K1 cells assessed as increase of fluorescence based calcium mobilization by FLIPR assay relative to control; format: functional, cell-based
T1 sequence (whole entry): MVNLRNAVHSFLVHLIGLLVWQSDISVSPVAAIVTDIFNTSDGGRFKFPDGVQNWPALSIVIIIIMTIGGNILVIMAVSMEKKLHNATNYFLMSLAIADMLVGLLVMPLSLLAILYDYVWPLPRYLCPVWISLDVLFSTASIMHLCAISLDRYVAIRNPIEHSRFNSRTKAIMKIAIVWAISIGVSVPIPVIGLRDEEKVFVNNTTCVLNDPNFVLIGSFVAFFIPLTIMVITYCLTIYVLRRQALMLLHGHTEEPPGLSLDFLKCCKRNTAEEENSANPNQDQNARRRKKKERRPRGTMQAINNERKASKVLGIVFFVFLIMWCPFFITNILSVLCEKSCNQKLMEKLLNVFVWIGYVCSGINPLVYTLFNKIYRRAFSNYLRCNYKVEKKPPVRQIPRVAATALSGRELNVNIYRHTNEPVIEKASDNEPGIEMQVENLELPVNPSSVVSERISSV

[2] = target: T1, 5-hydroxytryptamine receptor 2C (Homo sapiens); assay: Agonist activity at human 5HT2C receptor expressed in HEK293 cells assessed as 5-HT-induced maximum response by inositol phosphate accumulation assay; format: functional, cell-based
[3] = target: T2, 5-hydroxytryptamine receptor 2C (Canis lupus familiaris) (UniProt Q60F97); assay: Agonist activity at dog 5HT2C receptor ralative to control; format: functional
T2 sequence (whole entry): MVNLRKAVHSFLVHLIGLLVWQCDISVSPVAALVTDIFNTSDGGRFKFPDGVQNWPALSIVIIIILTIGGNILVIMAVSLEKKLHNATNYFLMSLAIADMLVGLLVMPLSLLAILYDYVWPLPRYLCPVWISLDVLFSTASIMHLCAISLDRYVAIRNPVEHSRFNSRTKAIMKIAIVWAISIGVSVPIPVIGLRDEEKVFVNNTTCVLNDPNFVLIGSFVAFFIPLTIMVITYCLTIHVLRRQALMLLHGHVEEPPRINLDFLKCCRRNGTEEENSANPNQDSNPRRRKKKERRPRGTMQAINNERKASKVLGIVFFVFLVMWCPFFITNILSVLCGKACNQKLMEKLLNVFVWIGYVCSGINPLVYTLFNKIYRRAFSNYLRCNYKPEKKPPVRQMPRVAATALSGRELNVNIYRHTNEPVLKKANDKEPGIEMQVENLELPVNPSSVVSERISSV

[4] = target: T3, 5-hydroxytryptamine receptor 2B (Homo sapiens, UniProt P41595); assay: Agonist activity at human 5HT2B receptor expressed in CHO-K1 cells assessed as increase of fluorescence based calcium mobilization by FLIPR assay; format: functional, cell-based
[5] = target: T3, 5-hydroxytryptamine receptor 2B; assay: Agonist activity at human 5HT2B receptor expressed in CHO-K1 cells assessed as increase of fluorescence based calcium mobilization by FLIPR assay relative to control; format: functional, cell-based
[6] = target: T4, 5-hydroxytryptamine receptor 2C (Homo sapiens, UniProt P28335); assay: Agonist activity at human 5HT2C receptor expressed in CHO-K1 cells assessed as increase of fluorescence based calcium mobilization by FLIPR assay; format: functional, cell-based
T4 sequence (P28335 whole entry): T1 sequence (whole entry)

[7] = target: T4, 5-hydroxytryptamine receptor 2C; assay: Agonist activity at human 5HT2C receptor expressed in Swiss mouse 3T3 cells with low expression increase of fluorescence based calcium mobilization by FLIPR assay; format: functional, cell-based
[8] = target: T1, 5-hydroxytryptamine receptor 2C (Homo sapiens); assay: Agonist activity at human recombinant 5HT2C receptor expressed in Swiss mouse 3T3 cells with low expression increase of fluorescence based calcium mobilization by FLIPR assay relative to control; format: functional, cell-based; conditions: NIH3T3
[9] = target: T1, 5-hydroxytryptamine receptor 2C (Homo sapiens); assay: Agonist activity at human 5HT2C receptor expressed in CHO-K1 cells assessed as increase of fluorescence based calcium mobilization at 10 uM by FLIPR assay relative to control; format: functional, cell-based
Canis familiaris = assay: Increase of peak urethral pressure in iv dosed anesthetized dog stress urinary incontinence model; format: functional, organism-based; conditions: Canis lupus familiaris; Urethra
[10] = target: T3, 5-hydroxytryptamine receptor 2B; assay: Agonist activity at human 5HT2B receptor expressed in CHO-K1 cells assessed as increase of fluorescence based calcium mobilization at 10 uM by FLIPR assay relative to control; format: functional, cell-based
[11] = target: 5-hydroxytryptamine receptor 2A (Homo sapiens) (UniProt P28223); assay: Agonist activity at human recombinant 5HT2A receptor expressed in Swiss mouse 3T3 cells increase of fluorescence based calcium mobilization by FLIPR assay relative to control; format: functional, cell-based; conditions: NIH3T3
[12] = target: T3, 5-hydroxytryptamine receptor 2B; assay: Agonist activity at human recombinant 5HT2B receptor expressed in Swiss mouse 3T3 cells assessed as increase of fluorescence based calcium mobilization at 10 uM by FLIPR assay; format: functional, cell-based; conditions: NIH3T3
[13] = Binding affinity to sodium channel site 2 at 10000 nM
[14] = Binding affinity to L-type calcium channel diltiazem binding site at 10000 nM
[15] = Binding affinity to L-type calcium channel verapamil binding site at 10000 nM
[16] = Binding affinity to L-type Ca2+ channel dihydropyridine binding site at 10000 nM
[17] = target: T5, Muscarinic acetylcholine receptor M1 (Homo sapiens) (UniProt P11229); assay: Agonist activity at human muscarinic M1 receptor up to 10 uM; format: functional
T5 sequence (whole entry): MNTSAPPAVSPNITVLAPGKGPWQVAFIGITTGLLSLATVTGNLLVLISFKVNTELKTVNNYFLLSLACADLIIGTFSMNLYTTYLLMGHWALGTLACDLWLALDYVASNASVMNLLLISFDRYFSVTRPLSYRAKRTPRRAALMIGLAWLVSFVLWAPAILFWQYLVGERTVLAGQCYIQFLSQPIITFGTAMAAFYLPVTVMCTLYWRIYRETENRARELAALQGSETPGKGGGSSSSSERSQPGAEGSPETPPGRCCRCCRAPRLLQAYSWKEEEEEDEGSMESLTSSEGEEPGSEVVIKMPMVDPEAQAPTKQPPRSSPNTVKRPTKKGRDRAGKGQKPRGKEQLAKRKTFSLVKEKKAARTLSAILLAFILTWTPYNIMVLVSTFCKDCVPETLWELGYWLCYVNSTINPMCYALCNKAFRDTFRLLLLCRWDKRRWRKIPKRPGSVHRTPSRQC

[18] = target: T6, Muscarinic acetylcholine receptor M5 (Homo sapiens) (UniProt P08912); assay: Agonist activity at human muscarinic M5 receptor up to 10 uM; format: functional
T6 sequence (whole entry): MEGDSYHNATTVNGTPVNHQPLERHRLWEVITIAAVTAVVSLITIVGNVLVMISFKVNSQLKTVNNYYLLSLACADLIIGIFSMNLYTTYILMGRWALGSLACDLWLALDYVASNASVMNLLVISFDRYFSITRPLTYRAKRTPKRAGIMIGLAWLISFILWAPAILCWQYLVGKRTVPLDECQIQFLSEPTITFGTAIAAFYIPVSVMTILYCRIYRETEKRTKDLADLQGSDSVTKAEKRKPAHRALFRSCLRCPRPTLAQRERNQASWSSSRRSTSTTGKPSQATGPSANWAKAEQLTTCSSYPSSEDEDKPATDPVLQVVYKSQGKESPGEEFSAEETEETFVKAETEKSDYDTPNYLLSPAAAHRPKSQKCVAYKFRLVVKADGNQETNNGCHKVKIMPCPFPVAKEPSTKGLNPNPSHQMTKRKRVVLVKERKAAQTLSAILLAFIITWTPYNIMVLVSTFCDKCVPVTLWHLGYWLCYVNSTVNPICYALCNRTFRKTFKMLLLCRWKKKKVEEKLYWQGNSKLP

[19] = target: Voltage-gated sodium channel type V alpha polypeptide (Oryctolagus cuniculus) (UniProt Q2MZF0); assay: Inhibition of Nav1.5 in rabbit cardiac myocytes up to 100 uM; format: cell-based
Rattus norvegicus = assay: Inhibition of 5HT2A receptor-mediated head twitches in rat at 10 mg/kg, po; format: functional, organism-based; parameters: dose 10 mg/kg
[20] = target: 5-hydroxytryptamine receptor 2A (Canis lupus familiaris) (UniProt O46635); assay: Agonist activity at 5HT2A receptor in dog femoral artery relative to control; format: functional, tissue-based
Sequence of 5-hydroxytryptamine receptor 2A (Canis lupus familiaris) (O46635 whole entry): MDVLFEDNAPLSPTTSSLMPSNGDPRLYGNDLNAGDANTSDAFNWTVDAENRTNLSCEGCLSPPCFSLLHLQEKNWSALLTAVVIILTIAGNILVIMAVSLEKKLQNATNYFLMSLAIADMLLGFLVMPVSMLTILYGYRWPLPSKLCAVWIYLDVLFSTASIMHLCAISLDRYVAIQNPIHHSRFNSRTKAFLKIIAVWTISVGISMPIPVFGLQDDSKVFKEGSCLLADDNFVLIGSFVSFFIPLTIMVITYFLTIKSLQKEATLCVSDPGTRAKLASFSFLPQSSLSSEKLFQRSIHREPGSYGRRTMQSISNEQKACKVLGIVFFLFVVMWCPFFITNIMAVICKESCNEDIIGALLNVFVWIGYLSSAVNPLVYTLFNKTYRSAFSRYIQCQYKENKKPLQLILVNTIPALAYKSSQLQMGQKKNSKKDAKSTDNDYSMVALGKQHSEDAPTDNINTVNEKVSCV

T3 sequence (P41595 whole entry): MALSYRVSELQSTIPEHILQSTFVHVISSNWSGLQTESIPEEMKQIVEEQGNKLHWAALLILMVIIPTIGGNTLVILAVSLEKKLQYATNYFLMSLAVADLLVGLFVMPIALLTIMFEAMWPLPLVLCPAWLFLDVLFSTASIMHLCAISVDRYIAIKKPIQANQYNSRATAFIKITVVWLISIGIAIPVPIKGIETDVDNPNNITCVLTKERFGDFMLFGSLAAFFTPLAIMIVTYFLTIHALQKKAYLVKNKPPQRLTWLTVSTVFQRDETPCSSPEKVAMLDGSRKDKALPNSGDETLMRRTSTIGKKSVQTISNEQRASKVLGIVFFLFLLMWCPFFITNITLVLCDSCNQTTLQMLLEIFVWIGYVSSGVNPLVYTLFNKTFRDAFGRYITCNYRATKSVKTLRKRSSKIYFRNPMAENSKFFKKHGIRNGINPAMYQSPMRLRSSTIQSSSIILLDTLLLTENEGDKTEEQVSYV
Sequence of 5-hydroxytryptamine receptor 2A (Homo sapiens) (P28223 whole entry): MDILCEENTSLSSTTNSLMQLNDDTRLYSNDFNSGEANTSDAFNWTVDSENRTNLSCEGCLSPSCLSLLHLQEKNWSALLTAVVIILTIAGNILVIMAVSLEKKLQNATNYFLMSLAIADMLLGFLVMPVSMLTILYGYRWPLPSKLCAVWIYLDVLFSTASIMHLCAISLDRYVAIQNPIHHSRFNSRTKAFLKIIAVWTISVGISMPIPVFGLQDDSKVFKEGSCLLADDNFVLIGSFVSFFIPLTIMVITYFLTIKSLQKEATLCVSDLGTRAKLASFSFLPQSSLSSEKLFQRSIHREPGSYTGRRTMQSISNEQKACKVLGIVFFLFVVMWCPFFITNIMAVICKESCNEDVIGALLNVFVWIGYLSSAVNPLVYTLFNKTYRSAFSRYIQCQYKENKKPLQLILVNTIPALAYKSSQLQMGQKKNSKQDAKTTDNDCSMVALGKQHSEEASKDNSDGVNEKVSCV

C[C@H]1CNCCc2ccc(Cl)cc21
Emax [1]: 84%
Emax [2]: 100%
Activity [3]: 82%

Clc1ccc(Cc2ncc3c(n2)CCNCC3)cc1
Emax [1]: 65%
pEC50 [4]: 7.22
Emax [5]: 62%

c1ccc(-c2ncc3c(n2)CNCC3)cc1
pEC50 [6]: 6.42
Emax [1]: 92%

c1ccc(CCc2ncc3c(n2)CCNCC3)cc1
pEC50 [6]: 6.96
Emax [1]: 99%
pEC50 [7]: 5.32
Emax [8]: 40%

FC(F)(F)c1cccc(Cc2ncc3c(n2)CCNCC3)c1
Emax [1]: 44%
pEC50 [4]: 6.80
Emax [5]: 63%

c1ccc(Cc2ncc3c(n2)CCNC3)cc1
Emax [9]: 64%

Fc1cccc(Cc2ncc3c(n2)CCNCC3)c1
Emax [1]: 67%
pEC50 [4]: 6.74
Emax [5]: 66%

c1ccc(Cc2ncc3c(n2)CNCC3)cc1
Emax [9]: 27%

c1ccc(Cc2ncc3c(n2)CCNCC3)cc1
Activity (Canis familiaris): Dose-dependent effect
Emax [10]: 33%
Emax [11]: 82%
Emax [12]: 33%
inhibition [13]: < 20%
inhibition [14]: < 20%
inhibition [15]: < 20%
inhibition [16]: < 20%
Activity [17]: inactive
Activity [18]: inactive
Activity [19]: inactive
Activity [3]: 81%
inhibition (Rattus norvegicus): inactive
Emax [20]: 51%

c1ccc(CCCc2ncc3c(n2)CNCC3)cc1
Activity [1]: inactive

c1ccc(-c2ncc3c(n2)CCNCC3)cc1
Activity [1]: inactive

Fc1ccc(Cc2ncc3c(n2)CCNCC3)cc1
Emax [1]: 60%
pEC50 [4]: 6.21
Emax [5]: 90%

c1ccc(-c2ncc3c(n2)CCNC3)cc1
Activity [1]: inactive
